The values below are quoted from earlier work in patent US11446297B2, “Methods for treating hemolytic diseases and sickle cell disease” (Purdue Research, priority 2015, dated 2022).

The target of the series is Syk (Homo sapiens, UniProt P43405). The conditions noted are these: first IC column; kinase assay; Inactive@ 80 μM (r14).

As for `COc1ccc2c(c1)c(/C=C1\C(=O)Nc3ccc(S(=O)(=O)N(C)C)cc31)cn2C` [Compd 6], the “IC@ (result in words)” value is reported as “Inactive@”.
